In patent publication US20140308733A1, “METHOD FOR INDUCING GERMINATION OF SPORE FORMING BACTERIUM” (CALPIS CO., LTD., priority 2011, published 2014):

What was measured:
C-3102 strain = assay: Long time culture of spore suspension with inducer, turbidity up to 24 hours (proliferation check, Example 4); type: cell-based, Bacillus subtilis; conditions: 500 μL spore suspension + 500 μL of 600 ppm solution
Procedure: This Example is an experiment to examine whether proliferation is recognizable or not, when ferulic acid or vanillic acid is mixed with a spore suspension of the C-3102 strain and cultured for a long time period.
The C-3102 strain was cultured on a nutrient plate at 37° C. for 3 days, and thereafter bacterial cells were collected by a bacteria spreader and a spore suspension was prepared similarly as in Example 1 (OD 630=1.0). After mixing 500 μL of the C-3102 spore suspension with 500 μL of a 600 ppm-ferulic acid solution, or a 600 ppm-vanillic acid solution, change in the turbidity (630 nm) up to 24 hours was examined.

[1] = test system: Bacillus subtilis C-3102 (FERM BP-1096); assay: Influence of the concentration of germination inducer on turbidity change (Example 2); type: cell-based; conditions: for turbidity (630 nm): 37° C., 150 rpm
Procedure: Next, 500 μL aliquots of bacterial suspension of Bacillus subtilis C-3102 (FERM BP-1096) used in Example 1 were mixed with 500 μL of ferulic acid, or vanillic acid solutions described above, and the mixtures were adjusted to ferulic acid (10 to 600 ppm), or vanillic acid (10 to 1800 ppm) concentrations set forth in Table 2. The concentrations of ferulic acid at the reaction initiation were 10, 100, 300, and 600 ppm, and the concentrations of vanillic acid at the reaction initiation were 10, 100, 300, 600, 1200, and 1800 ppm.
As same as Example 1, defining the time point of mixing the bacterial suspension with the solution of ferulic acid, or vanillic acid as the reaction initiation (0 min), and continuing shaking (150 rpm) at 37° C., the absorbance (630 nm) was measured at 10, 20, 30, 40, 50, 60, 90, 120, and 180 min after the reaction initiation.

COc1cc(/C=C/C(=O)O)ccc1O [Ferulic acid, ferulic acid]
turbidity (630 nm) (C-3102 strain; reaction time 0 hr): 0.574 | turbidity (630 nm) (C-3102 strain; reaction time 0.5 hr): 0.543 | turbidity (630 nm) (C-3102 strain; reaction time 1 hr): 0.502 | turbidity (630 nm) (C-3102 strain; reaction time 1.5 hr): 0.464 | turbidity (630 nm) (C-3102 strain; reaction time 2 hr): 0.425 | turbidity (630 nm) (C-3102 strain; reaction time 3 hr): 0.370 | turbidity (630 nm) (C-3102 strain; reaction time 24 hr): 0.178 | turbidity (630 nm) ([1]; ferulic acid 10 ppm, 0 min after reaction initiation): 0.584 | turbidity (630 nm) ([1]; ferulic acid 10 ppm, 10 min after reaction initiation): 0.563 | turbidity (630 nm) ([1]; ferulic acid 10 ppm, 20 min after reaction initiation): 0.553 | turbidity (630 nm) ([1]; ferulic acid 10 ppm, 30 min after reaction initiation): 0.544 | turbidity (630 nm) ([1]; ferulic acid 10 ppm, 40 min after reaction initiation): 0.533 | turbidity (630 nm) ([1]; ferulic acid 10 ppm, 50 min after reaction initiation): 0.519 | turbidity (630 nm) ([1]; ferulic acid 10 ppm, 60 min after reaction initiation): 0.507 | turbidity (630 nm) ([1]; ferulic acid 10 ppm, 90 min after reaction initiation): 0.488 | turbidity (630 nm) ([1]; ferulic acid 10 ppm, 120 min after reaction initiation): 0.447 | turbidity (630 nm) ([1]; ferulic acid 10 ppm, 180 min after reaction initiation): 0.353 | turbidity (630 nm) ([1]; ferulic acid 100 ppm, 0 min after reaction initiation): 0.583 | turbidity (630 nm) ([1]; ferulic acid 100 ppm, 10 min after reaction initiation): 0.565 | turbidity (630 nm) ([1]; ferulic acid 100 ppm, 20 min after reaction initiation): 0.556 | turbidity (630 nm) ([1]; ferulic acid 100 ppm, 30 min after reaction initiation): 0.53 | turbidity (630 nm) ([1]; ferulic acid 100 ppm, 40 min after reaction initiation): 0.52 | turbidity (630 nm) ([1]; ferulic acid 100 ppm, 50 min after reaction initiation): 0.500 | turbidity (630 nm) ([1]; ferulic acid 100 ppm, 60 min after reaction initiation): 0.484 | turbidity (630 nm) ([1]; ferulic acid 100 ppm, 90 min after reaction initiation): 0.448 | turbidity (630 nm) ([1]; ferulic acid 100 ppm, 120 min after reaction initiation): 0.383 | turbidity (630 nm) ([1]; ferulic acid 100 ppm, 180 min after reaction initiation): 0.247 | turbidity (630 nm) ([1]; ferulic acid 300 ppm, 0 min after reaction initiation): 0.579 | turbidity (630 nm) ([1]; ferulic acid 300 ppm, 10 min after reaction initiation): 0.56 | turbidity (630 nm) ([1]; ferulic acid 300 ppm, 20 min after reaction initiation): 0.547 | turbidity (630 nm) ([1]; ferulic acid 300 ppm, 30 min after reaction initiation): 0.530 | turbidity (630 nm) ([1]; ferulic acid 300 ppm, 40 min after reaction initiation): 0.520 | turbidity (630 nm) ([1]; ferulic acid 300 ppm, 50 min after reaction initiation): 0.499 | turbidity (630 nm) ([1]; ferulic acid 300 ppm, 60 min after reaction initiation): 0.466 | turbidity (630 nm) ([1]; ferulic acid 300 ppm, 90 min after reaction initiation): 0.422 | turbidity (630 nm) ([1]; ferulic acid 300 ppm, 120 min after reaction initiation): 0.354 | turbidity (630 nm) ([1]; ferulic acid 300 ppm, 180 min after reaction initiation): 0.22 | turbidity (630 nm) ([1]; ferulic acid 600 ppm, 0 min after reaction initiation): 0.586 | turbidity (630 nm) ([1]; ferulic acid 600 ppm, 10 min after reaction initiation): 0.552 | turbidity (630 nm) ([1]; ferulic acid 600 ppm, 20 min after reaction initiation): 0.545 | turbidity (630 nm) ([1]; ferulic acid 600 ppm, 30 min after reaction initiation): 0.526 | turbidity (630 nm) ([1]; ferulic acid 600 ppm, 40 min after reaction initiation): 0.515 | turbidity (630 nm) ([1]; ferulic acid 600 ppm, 50 min after reaction initiation): 0.506 | turbidity (630 nm) ([1]; ferulic acid 600 ppm, 60 min after reaction initiation): 0.477 | turbidity (630 nm) ([1]; ferulic acid 600 ppm, 90 min after reaction initiation): 0.447 | turbidity (630 nm) ([1]; ferulic acid 600 ppm, 120 min after reaction initiation): 0.379 | turbidity (630 nm) ([1]; ferulic acid 600 ppm, 180 min after reaction initiation): 0.246 | germination induction versus concentration ([1]; ferulic acid of 10 to 600 ppm): germination was inducted at any concentration to the same extent
